3 compounds from US11360077B2, “Death receptors as markers for rhTRAIL-sensitivity” (Cleveland State University, priority 2017, dated 2022) can be followed below.

Residues, ends and D or L forms follow the SMILES beside them. *: point of attachment. Cbz = O=C(OCc1ccccc1)*; CH2F = FC*

Common to all, as to assay type: cell-based, human
The test system of test [1] is FLIP. Kind of test: Total FLIP protein (western blot). The method, then: Western Blot Analysis. Total cell lysates were prepared using RIPA lysis buffer (Sigma) containing 150 mM sodium chloride, 1.0% Triton X-100, 0.5% sodium deoxycholate, 0.1% sodium dodecyl sulfate (SDS) and 50 mM Tris, pH 8.0 plus a 1× cocktail of protease inhibitors (Protease Inhibitor Cocktail Set I, Calbiochem). Cells were lysed for 30 minutes at 4° C. followed by centrifugation for 10 minutes at 10,000 rpm at 4° C. Protein concentrations were determined using BCA protein assay (Pierce). A 35 μg protein aliquot was mixed with 4× Laemmli's SDS sample buffer (0.02% Bromophenol Blue (BPB), 8% Beta-mercaptoethanol (BME), 8% SDS, 40% glycerol and 250 mM Tris-HCl, pH 6.8). Cell lysates were heated for five minutes at 100° C., resolved by 12% SDS-polyacrylamide gel electrophoresis (SDS-PAGE) and transferred to polyvinylidene fluoride (PVDF) membrane. The membrane was blocked with 5% non-fat milk or 5% BSA for ≥1 hour and incubated with primary antibodies for PARP and caspase 8 (Cell Signaling). After incubation, the membrane was incubated with secondary anti-rabbit or mouse horseradish peroxidase (HRP)-conjugated antibodies (Biorad). Proteins were visualized through development by enhanced chemiluminescence (ECL 2 Western Blotting Substrate, Pierce) and exposure on X-ray film. The blots were reprobed for β-actin to confirm equal protein loading.
(§1) Western Blot Analysis. Total cell lysates were analyzed for levels of PARP, caspase 8, caspase 3, Bid, caspase 9, caspase 6, caspase 7, FLIP, DR4 and DR5 and the cytosolic cellular fraction was analyzed for cytochrome C (Cell Signaling) using previously described western blotting techniques.

Test [2] deals with rhTRAIL-resistant malignant melanomas. In words: Western blot of co-treatment with general caspase inhibitor Z-VAD-FMK. Particulars: Z-VAD-FMK added to rhTRAIL plus quercetin. The method, then:
(§2) Western Blot Analysis. Total cell lysates were prepared using RIPA lysis buffer (Sigma) containing 150 mM sodium chloride, 1.0% Triton X-100, 0.5% sodium deoxycholate, 0.1% sodium dodecyl sulfate (SDS) and 50 mM Tris, pH 8.0 plus a 1× cocktail of protease inhibitors (Protease Inhibitor Cocktail Set I, Calbiochem). Cells were lysed for 30 minutes at 4° C. followed by centrifugation for 10 minutes at 10,000 rpm at 4° C. Protein concentrations were determined using BCA protein assay (Pierce). A 35 μg protein aliquot was mixed with 4× Laemmli's SDS sample buffer (0.02% Bromophenol Blue (BPB), 8% Beta-mercaptoethanol (BME), 8% SDS, 40% glycerol and 250 mM Tris-HCl, pH 6.8). Cell lysates were heated for five minutes at 100° C., resolved by 12% SDS-polyacrylamide gel electrophoresis (SDS-PAGE) and transferred to polyvinylidene fluoride (PVDF) membrane. […]
as §1
Post treatment cells were collected and analyzed for induction of apoptosis through Annexin-V and PI staining and western blotting probing for key proteins in the apoptotic pathways (FIG. 4). […]
On the technique in general: In western blotting, separated proteins are transferred to a membrane and probed.

Test [3] relates to WM164. In words: Apoptosis assay (FITC-Annexin-V and PI staining, FACS). The method, then: (§3) Cell Culture. Cells were incubated in a 90% humidified atmosphere with 5% CO2 at 37° C. Human adult primary epidermal melanocytes (ATCC PCS-200-013) were maintained in Dermal Cell Basal Medium supplemented with an Adult Melanocyte Growth kit (ATCC PCS-200-042) and 1% Antibiotic/Antimycotic Solution. The malignant melanoma cell lines, A375 (ATCC CRL-1619), WM9 and WM164 were maintained in DMEM and MeWo (ATCC HTB-65) was maintained in RPMI, both supplemented with 10% Fetal Bovine Serum (FBS) and 1% Antibiotic/Antimycotic Solution. WM9 and WM164 were a kind gift from Dr. Daniel J. Lindner from the Cleveland Clinic Foundation, Cleveland, Ohio Malignant melanoma lines are derived from patient tumors. A375 was derived from an epithelial skin biopsy. MeWo, WM9 and WM164 are metastatic malignant melanomas isolated from the lymph nodes.
(§4) Apoptosis Assay. Cells were trypsinized, harvested, washed twice with cold PBS and resuspended in 100 μl of Annexin-V binding buffer at a concentration of 1×10^3 cells/μl. According to manufacturer's protocol, cells were incubated with 5 μl of FITC-Annexin-V and propidium iodide (PI) for 15 minutes at room temperature in the dark (FITC-Annexin-V Kit Apoptosis Detection Kit I, BD Pharminogen). Stained cells were analyzed on BD FACS Canto II using Diva software. Single color controls (Annexin-V or PI only) were used to set up compensation and quadrants for FACS.
(§5) Melanoma rhTRAIL-Sensitivity: To test rhTRAIL-sensitivity, malignant melanoma lines were treated with and without 100 ng/ml of rhTRAIL for 72 hours. Prior to treatment, control experiments were done to determine the optimal conditions for rhTRAIL-treatment (data not shown). The treatment of 100 ng/ml for 72 hours was selected to best distinguish between rhTRAIL-sensitive and rhTRAIL-resistant melanomas. Post-treatment cells were analyzed for induction of apoptosis through FITC-Annexin-V and PI staining followed by FACS analysis (FIGS. 2A & 2B). […]

Test [4] relates to MeWo. The test is described as above. Particulars: quercetin alone at 25 and 50 μM. The method, then:
as §3, §4, §5

Test [5] relates to FLIP. In words: FLIP mRNA (reverse transcription-PCR). The method, then:
(§6) Reverse Transcription-PCR. Total RNA was extracted using TRIzol reagent (Ambion) and treated with DNase according to manufacturer's protocol (Invitrogen Deoxyribonuclease I, Amplification Grade). RT-PCR was performed following the manufacturer's protocol (Invitrogen SuperScript III One-Step RT-PCR System with Platinum® Taq DNA Polymerase). Human DR5 mRNA was amplified using the forward primer 5′-[…]-3′ and the reverse primer 5′-[…]-3′. For DR4, forward primer 5′-GAGCAACGCAGACTCGCT-3′ and the reverse primer 5′-TCACTCCAAGGACACGGC-3′ were used. For FLIP, forward primer 5′-[…]-3′ and the reverse primer 5′-[…]-3′ were used. For β-actin, the forward primer 5′-[…]-3′ and the reverse primer 5′-[…]-3′ were used. cDNA synthesis was performed at 60° C. for 30 minutes using the Applied Biosystems GeneAmp PCR System 9700. The PCR cycling conditions (30 cycles) were as follows: denature for 2 minutes at 94° C., anneal for 30 seconds at 55° C. for FLIP and DR4 and 65° C. for DR5 and β-actin, extend for 1 minute and 30 seconds at 68° C., and execute a final extension for 10 minutes at 68° C. Reaction products were analyzed on 1.2% agarose gels. The bands were visualized by ethidium bromide and an UV.

Test [6] has as its system WM164. Kind of test: Western blot of apoptotic cascade (PARP, caspases, Bid, cytochrome c). The settings on record: WM164, quercetin alone at 25 and 50 μM. The method, then:
as §2, with “6.8).” for “6.8). Cell lysates were heated for five minutes at 100° C., resolved by 12% SDS-polyacrylamide gel electrophoresis (SDS-PAGE) and transferred to polyvinylidene fluoride (PVDF) membrane.”
(§7) Melanoma rhTRAIL-Sensitivity: To test rhTRAIL-sensitivity, malignant melanoma lines were treated with and without 100 ng/ml of rhTRAIL for 72 hours. […] Post-treatment cells were analyzed for induction of apoptosis through FITC-Annexin-V and PI staining followed by FACS analysis (FIGS. 2A & 2B).
(§8) Western Blot Analysis. Total cell lysates were analyzed for levels of PARP, caspase 8, caspase 3, Bid, caspase 9, caspase 6, caspase 7, FLIP, DR4 and DR5 and the cytosolic cellular fraction was analyzed for cytochrome C (Cell Signaling) using previously described western blotting techniques. […]

Test [7] relates to MeWo. Described as above. The settings on record: quercetin alone at 25 and 50 μM. The method, then:
as §2, with “6.8).” for “6.8). Cell lysates were heated for five minutes at 100° C., resolved by 12% SDS-polyacrylamide gel electrophoresis (SDS-PAGE) and transferred to polyvinylidene fluoride (PVDF) membrane.”
as §7, §8

Test [8] deals with DR4. In words: Total DR4 protein (western blot). The method, then: as §2, with “membrane. The membrane was blocked with 5% non-fat milk or 5% BSA for ≥1 hour and incubated with primary antibodies for PARP and caspase 8 (Cell Signaling).” for “membrane.”
as §1

For test [9], the system named is DR5. In words: Total DR5 protein (western blot). The method, then: as §2, with “membrane. The membrane was blocked with 5% non-fat milk or 5% BSA for ≥1 hour and incubated with primary antibodies for PARP and caspase 8 (Cell Signaling).” for “membrane.”
as §1

Test [10] deals with DR4. Kind of test: Death receptor membrane expression (anti-DR4-PE staining, FACS). The method, then:
(§9) Death Receptor Membrane Expression. Untreated and rhTRAIL-treated cells were collected with enzyme-free phosphate-buffered saline (PBS)-based cell dissociation buffer (Gibco Life Technologies) and stained with mouse anti-human DR4 or DR5 conjugated to phycoerythrin (PE) (eBioscience). Briefly, 0.25×10^6 cells were incubated in 100 μl of staining buffer (2% FBS and 0.02% sodium azide in PBS) and 5 μl anti-DR4 or anti-DR5 for one hour on ice in the dark. As a negative control to account for non-specific antibody binding, all four melanoma lines were stained with mouse IgG1κ, the same antibody isotype as DR4 and DR5, under the same conditions. After incubation, cells were washed twice with staining buffer and resuspended in 500 μl of staining buffer and analyzed on BD FACS Canto II using Diva software (BD Bioscience, San Jose, Calif.). Death Receptor Membrane Expression. The cell surface expression of DR4 and DR5 were determined according to previously described methods. For the permeabilization experiments, after the first antibody incubation cells were fixed in 4% paraformaldehyde for 10 minutes at room temperature and permeabilized with 0.1% saponin for 5 minutes at room temperature. Cells were then incubated with anti-IgG1κ, DR4 or DR5 for 30 minutes in the saponin buffer and analyzed by FACS. To calculate the cytoplasmic DR expression, […].

Test [11] deals with DR4. Kind of test: DR4 mRNA (reverse transcription-PCR). The method, then: as §6
Test [12] deals with DR4. In words: Cytoplasmic DR4 expression (permeabilization, FACS). The method, then: Death Receptor Membrane Expression. The cell surface expression of DR4 and DR5 were determined according to previously described methods. For the permeabilization experiments, after the first antibody incubation cells were fixed in 4% paraformaldehyde for 10 minutes at room temperature and permeabilized with 0.1% saponin for 5 minutes at room temperature. Cells were then incubated with anti-IgG1κ, DR4 or DR5 for 30 minutes in the saponin buffer and analyzed by FACS. To calculate the cytoplasmic DR expression, […].

In test [13] the test system is DR5. Kind of test: Death receptor membrane expression (anti-DR5-PE staining, FACS). The method, then: as §9
In test [14] the test system is DR5. In words: DR5 mRNA (reverse transcription-PCR). The method, then: as §6
Where [15] appears, read: MeWo, post-treatment with quercetin.
The mark [16] stands for this setting: WM164, post-treatment with quercetin.

As for `CC(C)C[C@@H](C=O)NC(=O)[C@H](CC(C)C)NC(=O)[C@H](CC(C)C)NC(=O)OCc1ccccc1` [MG132, reference compound] (Cbz-Leu-Leu-Leu-aldehyde), the “effect of proteasome inhibitor on quercetin-mediated FLIP downregulation (total FLIP protein)” value in the test on FLIP [1] (co-treatment with quercetin) was “the downregulation of FLIP was prevented”.

Consider `COC(=O)C[C@H](NC(=O)[C@H](C)NC(=O)[C@@H](NC(=O)OCc1ccccc1)C(C)C)C(=O)CF` [Z-VAD-FMK] (Cbz-Val-Ala-Asp(OMe)-CH2F), for which the “effect on induction of apoptosis (PARP cleavage, caspase 3 activation) in the co-treatment group” value in test [2] is on record as “blocked the induction of apoptosis”.

For `O=c1c(O)c(-c2ccc(O)c(O)c2)oc2cc(O)cc(O)c12` [quercetin], the “protein expression of FLIP” value in the test with FLIP [1] (MeWo, quercetin) is listed as “dose-dependently downregulate”; in the test on FLIP [1] (WM164, quercetin), “dose-dependently downregulate”. In addition, the apoptotic cells in the test on WM164 [3] (WM164, quercetin alone at 25 μM) stood at 10.5±0.7%; in the test with WM164 [3] (WM164, quercetin alone at 50 μM) it was 19.1±1.6%. In addition, the “induction of apoptosis compared to control” value in the test on MeWo [4] is given as “no significant induction of apoptosis”. In addition, the “FLIP mRNA transcript signal” value with FLIP [5] (MeWo, quercetin) was “no change”; in the test on FLIP [5] (WM164, quercetin), “no change”. In the test on WM164 [6], the “PARP cleavage or protein activation” value was “did not reveal any PARP cleavage or protein activation”. Further, the “PARP cleavage or activation of pro-apoptotic proteins” value with MeWo [7] is on record as “no PARP cleavage or activation of any pro-apoptotic proteins”. The “total DR4 protein expression” value in the test with DR4 [8] (setting [15]) and in the test on DR4 [8] (setting [16]) was “no change” throughout. Moreover, the “total DR5 protein expression” value with DR5 [9] (setting [15]) was “no change”. Also, in the test with DR5 [9] (setting [16]), the “total DR5 protein” value is “dose-dependent upregulation”. The “DR4 membrane expression, fold increase relative to control” value in the test on DR4 [10] (MeWo, quercetin 25 μM) is reported as “over four-fold”; with DR4 [10] (MeWo, quercetin 50 μM) it was “over 11 fold”; in the test on DR4 [10] (WM164, quercetin 25 μM), “nearly five-fold”; with DR4 [10] (WM164, quercetin 50 μM) it was “seven-fold”. Also, the “DR4 mRNA message” value in the test with DR4 [11] (setting [15]) and in the test with DR4 [11] (setting [16]) was “no change” throughout. The “cytoplasmic levels of DR4” value is given as “decreased” in the test with DR4 [12] (MeWo, application of quercetin) and “decreased” in the test with DR4 [12] (WM164, application of quercetin). Besides, the “DR5 membrane expression upregulation” value in the test on DR5 [13] (MeWo, quercetin 25 and 50 μM) is on record as “this did not occur”. Also, the “DR5 membrane expression, fold increase relative to control” value in the test on DR5 [13] (WM164, quercetin 25 μM) is reported as “quarter-fold increase”; in the test with DR5 [13] (WM164, quercetin 50 μM), “half-fold increase”. Also, the figures for the “DR5 mRNA” value in the test on DR5 [14] (setting [15]) and in the test with DR5 [14] (setting [16]) were “no change” and “dose-dependent upregulation”, respectively.
